Drawing on PubChem BioAssay AID179 (DTP/NCI, 2004), this text covers EC50, IC50 and outcome for 71 compounds.

This assay deals with CEM cells HIV-1 protection, formazan growth assay. Briefly: NCI AIDS Antiviral Assay. The conditions noted are these: for IC50: measured here: growth of uninfected CEM cells. The gist of the method:
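Steps: treat uninfected and HIV-1-infected human CEM cells at five drug levels; quantify growth by soluble formazan; retest any compound reaching 50% protection; classify actives from the retest.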

The structures appear in SMILES notation. “And” between values parts separate entries of the source, which are not always exact repeats. Equal values may be shown once. The source made the active and inactive calls.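 How the source made its calls: active means compounds giving half or more protection of infected cells from virus-caused growth loss, again on retest; inactive means the rest.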

Take `O=C(OCC1OC(OC(=O)c2cc(O)c(O)c(OC(=O)c3cc(O)c(O)c(O)c3)c2)C(OC(=O)c2cc(O)c(O)c(OC(=O)c3cc(O)c(O)c(O)c3)c2)C(OC(=O)c2cc(O)c(O)c(OC(=O)c3cc(O)c(O)c(O)c3)c2)C1OC(=O)c1cc(O)c(O)c(OC(=O)c2cc(O)c(O)c(O)c2)c1)c1cc(O)c(O)c(OC(=O)c2cc(O)c(O)c(O)c2)c1` (stereo not drawn): the EC50 (commonly the concentration that produces a half-maximal response) was more than 60.3 µM and the half-maximal inhibitory concentration (IC50) (in general, the midpoint of a concentration-inhibition curve) was 6.76 µM.

As to `O=C(O)CCCCCCCc1cc(O)ccc1[N+](=O)[O-]`, the EC50 is more than 200 µM and the IC50 was more than 200 µM.

With `CN(C)NC1=C([N+](=O)[O-])C=NN(c2ccccc2)C1`, the EC50 is more than 27.5 µM and the concentration for half-maximal inhibition (IC50) worked out at 0.468 µM.

Turning to `CCOC(=O)C(COS(C)(=O)=O)(COS(C)(=O)=O)C(=O)OCC`, the EC50 was more than 251 µM and the IC50 is 209 µM.

As for `FC(F)(F)c1cccc(C2SCc3nc4ccccc4n32)c1` (stereo not drawn), the result was inactive.

For the compound `CCOC(=O)c1ccc(NC(NC(=O)CC)(C(F)(F)F)C(F)(F)F)cc1`, the EC50 is more than 200 µM and the concentration for half-maximal inhibition (IC50) was 24.5 µM.

Regarding `CC1(C)CNC[C@@](C)(O)C(=O)[N-]C(C)(C)CNC[C@@](C)(O)C(=O)[N-]1.[Ni+2]`, the EC50 is more than 200 µM and the IC50 worked out at 72.4 µM.

As for `O=c1c2c(-c3ccccc3)onc2n(-c2ccccc2)c(=O)n1-c1ccccc1`, the EC50 is more than 200 µM and the half-maximal inhibitory concentration (IC50) was 10.5 µM.

With `C=CNC(=S)N/C=C(\C#N)S(=O)(=O)c1ccc(C)cc1`, the EC50 is more than 200 µM and the concentration for half-maximal inhibition (IC50) was more than 200 µM.

For the compound `O=CNc1ccc(S(=O)(=O)c2ccc([N+](=O)[O-])cc2)cc1`, the EC50 is more than 200 µM and the half-inhibitory concentration (IC50) was found to be 30.2 µM.

As to `Clc1cccc(C2SCc3nc4ccccc4n32)c1` (stereo not drawn), the outcome was inactive.

With `COC(=O)C1(Cc2ccccc2)Cc2ccccc2C1`, the EC50 was more than 200 µM and the IC50 was determined as 35.5 µM.

Regarding `O=C(Nc1cc(Cl)c(Cl)cc1Cl)C(=O)C1C(=O)NC(=S)NC1=O`, the outcome was inactive.

For the compound `Cc1ccc(S(=O)(=O)NCCSCCSCCNS(=O)(=O)c2ccc(C)cc2)cc1`, the EC50 is more than 38.9 µM and the concentration for half-maximal inhibition (IC50) is more than 38.9 µM.

For `NC(=O)c1cc(-c2ccc(-n3ccnc3)cc2)n[nH]c1=O`, the EC50 is more than 200 µM and the IC50 was found to be 155 µM.

As for `COC(=O)C1=C(C(=O)OC)C23C=CC=CC24C(C(=O)OC)=C(C(=O)OC)C4C1C3` (stereo not drawn), the EC50 was more than 447 µM and the IC50 came to 155 µM.

`C[C@]12C[C@@H](c3ccccc3)Nc3ccccc3N1C(c1ccccc1)=NO2`: the EC50 was more than 200 µM and the IC50 was 30.9 µM.

With `COC(=O)c1c(C(=O)OC)c2c(-c3ccccc3)cc3cccc1n32`, the EC50 is more than 8.13 µM and the 50% inhibitory concentration (IC50) is more than 8.13 µM.

As to `CCN(CC)CCCC(C)Nc1cc(/C=C/c2ccc(Cl)cc2)nc2cc(N(C)C)ccc12` (stereo not drawn), the EC50 is more than 145 µM and the IC50 came out at 0.871 µM.

On to `CCCCC1(O)CC2CC1C(C)C2(C)C` (stereo not drawn), for which the EC50 is more than 200 µM and the concentration for half-maximal inhibition (IC50) is more than 200 µM.

Regarding `COc1nc(NC2OC(CO)C(O)C(O)C2O)cc(=O)n1C` (stereo not drawn), the result was inactive.

As to `CC[C@H]1[C@@H](C)C=C[C@@H](C)N1S(=O)(=O)c1ccc(C)cc1`, the EC50 is more than 17.8 µM and the IC50 is more than 17.8 µM.

Turning to `O=S(=O)(O)CCO`, the EC50 is more than 200 µM and the concentration for half-maximal inhibition (IC50) is more than 200 µM.

Regarding `COC(=O)C(Cc1c[nH]c2ccccc12)NC(=O)C(Cc1cnc[nH]1)NC(=O)C1CCC(=O)N1C(=O)OCc1ccccc1` (stereo not drawn), the EC50 was more than 200 µM and the half-inhibitory concentration (IC50) was more than 200 µM.

With `CC(CCC(=O)O)[C@H]1CCC2[C@H]3C(CC(=O)[C@@]21C)[C@@]1(C)CCC(O)C[C@H]1C[C@@H]3O` (stereo partly drawn), the EC50 was more than 200 µM and the IC50 was more than 200 µM.

As to `O=C1CCC2(CC1CCSc1ccccc1)OCCO2` (stereo not drawn), the EC50 is more than 200 µM and the IC50 stood at 126 µM.

As for `CCOC(=O)NC(Nc1ncn(C(NC(=O)OCC)(C(F)(F)F)C(F)(F)F)n1)(C(F)(F)F)C(F)(F)F`, the EC50 was more than 200 µM and the concentration for half-maximal inhibition (IC50) is more than 200 µM.

As to `O=C(N/N=C1\C(=O)N(c2nccs2)C(=O)C(=O)C1c1nc2ccccc2s1)c1ccccc1O` (stereo not drawn), the result was inactive.

As for `CCOP(=O)(OCC)C(C(=O)OC)C(=O)C(=O)Nc1ccc(Cl)cc1Cl` (stereo not drawn), the EC50 was more than 61.7 µM and the IC50 was more than 61.7 µM.

Regarding `COc1ccc2c(c1)[nH]c1c(C)c3ccncc3c(C)c12`, the EC50 was more than 200 µM and the IC50 came out at 0.112 µM.

Turning to `Cn1c2c(c(=O)[nH]c1=O)OCN(Cc1ccccc1)C2`, the EC50 was more than 251 µM and the IC50 came out at 29.5 µM.

On to `C1=C(c2ccccc2)N2CCN=C2S1`, for which the EC50 is more than 200 µM and the IC50 came to 37.2 µM.

As for `CCOC(=O)c1cc(=O)oc2c1N(C)c1ncccc1N2`, the EC50 is more than 200 µM and the 50% inhibitory concentration (IC50) worked out at 166 µM.

As to `[Cu+2].[O-]/C(=N\N=C/c1ccccc1F)c1ccncc1.[O-]/C(=N\N=C\c1ccccc1F)c1ccncc1`, the EC50 is more than 100 µM and the 50% inhibitory concentration (IC50) was found to be 16.2 µM.

For the compound `CC(=O)C(=Cc1ccc(F)cc1)C(C)=O`, the EC50 was more than 871 µM and the IC50 turned out to be 38 µM.

Consider `CCOC(=O)c1cc(-c2ccccn2)c(=O)n2ccccc12`, for which the EC50 was more than 200 µM and the IC50 was 49 µM.

For `COc1cc(/C=C/C(C)=O)ccc1OP(=O)(O)O`, the EC50 is more than 200 µM and the IC50 was more than 200 µM.

Take `CC1(C)CCc2cc3c(O)c(-c4ccccc4)c(=O)oc3cc2O1`: the EC50 is more than 200 µM and the IC50 amounted to 77.6 µM.

On to `CC(/C=N/NC1=NCCCCN1)=N\NC1=NCCCCN1`, for which the EC50 is more than 200 µM and the IC50 worked out at 120 µM.

As to `Cc1cc2cc3cc(C)c(N)cc3nc2cc1N`, the EC50 is more than 2 µM and the IC50 was determined as 0.661 µM.

Regarding `Cc1cc(C)nc(NS(=O)(=O)c2ccc(NNC(=O)c3cccc4c(NNc5ccc(S(=O)(=O)Nc6nc(C)cc(C)n6)cc5)c5ccccc5nc34)cc2)n1`, the EC50 is more than 200 µM and the IC50 worked out at 21.9 µM.

As for `NCCNc1ccc([N+](=O)[O-])c2c(=O)c3ccccc3[nH]c12`, the result was inactive.

For `COc1cc(OC)c(C(=O)CC(=O)c2cc(OC)c(OC)c(OC)c2OC)cc1OC`, the EC50 was more than 575 µM and the IC50 was 479 µM.

As to `CCCCCC(/C=C/C1CCC(=O)C1)OCOCCOC` (stereo not drawn), the EC50 was more than 200 µM and the IC50 is 18.2 µM.

`CCCCCCCCCCCCS(=O)(=O)O` (tested in a mixture with another compound): the EC50 was more than 200 µM and the IC50 came out at 107 µM.

With `COC(=O)c1cc(CC2Cc3cc4c(cc3C2=O)CCC4)cc2c1CCC2` (stereo not drawn), the EC50 was 33.1 µM and the half-inhibitory concentration (IC50) is more than 200 µM.

For `CC(C)(CO)C(O)C(=O)NCCS(=O)(=O)O` (stereo not drawn), the EC50 is more than 200 µM and the half-inhibitory concentration (IC50) was more than 200 µM.

`COc1ccc(C2=Nc3c(nc(SC)[nH]c3=O)NC(c3ccccc3)C2)cc1` (stereo not drawn): the result was inactive.

For the compound `NCCCn1c(Cl)nc2ccccc21`, the EC50 was more than 200 µM and the IC50 was more than 200 µM.

In the case of `O=C(O)c1cccc(S(=O)(=O)NN2C(=O)CSC2c2c(O)ccc3ccccc23)c1` (stereo not drawn), the EC50 was more than 200 µM and the half-inhibitory concentration (IC50) came out at 29.5 µM.

With `CC1OC(CC(=O)O)Cc2c1c(O)c1c(O)cc(-c3cc(=O)c4c(=O)c5c(c(=O)c=4c3=O)CC(CC(=O)O)OC5C)c(O)c1c2O` (stereo not drawn), the outcome was inactive.

Consider `CC(C)(C)OC(=O)NC1CCCC1C(=O)C1=CCCC1` (stereo not drawn), for which the EC50 was more than 200 µM and the IC50 turned out to be 105 µM.

In the case of `CCN(CC)c1ccc(N=Nc2ccc(N=Nc3c(S(=O)(=O)O)cc4ccc(N)cc4c3O)c(OCCO)c2)cc1`, the EC50 is more than 14.8 µM and the IC50 is more than 14.8 µM.

In the case of `O=C(O)CN(CC(=O)O)C(C(=O)O)c1ccccc1` (stereo not drawn), the EC50 is more than 200 µM and the IC50 is more than 200 µM.

Turning to `CCOC(=O)c1cnn2c(SC)ncnc12`, the EC50 is more than 282 µM and the concentration for half-maximal inhibition (IC50) was determined as 67.6 µM.

`S=C(Nc1ccccc1)Nc1ccccc1S`: the EC50 was more than 200 µM and the IC50 worked out at 112 µM.

Take `CCN(CC)c1nc(NC2CCCCC2)c2nc(N(CC)CC)nc(NC3CCCCC3)c2n1`: the EC50 was more than 11.2 µM and the half-inhibitory concentration (IC50) was determined as 0.537 µM.

Turning to `Cc1nc2cccc(F)c2c(=O)n1-c1nnc(C2CC2)s1`, the EC50 is more than 200 µM and the 50% inhibitory concentration (IC50) is more than 200 µM.

Regarding `O=C(/C=C/c1ccccc1)/C=N/N1C(=S)N(c2ccccc2)C(=Nc2ccccc2)C1=Nc1ccccc1`, the EC50 was more than 200 µM and the IC50 is more than 200 µM.

As to `CC(C)(C)C1CCC2(N3CCOCC3)C(C#N)CC2C1` (stereo not drawn), the EC50 is more than 794 µM; the half-inhibitory concentration (IC50) is 89.1 µM and > 794 µM.

For the compound `O=C(NN1CCCCCC1)NS(=O)(=O)c1ccc(Cl)cc1`, the EC50 is more than 200 µM and the half-inhibitory concentration (IC50) was more than 200 µM.

Regarding `O=C(/C=C\c1cccc2ccccc12)c1ccc(Cl)cc1Cl`, the EC50 was more than 1.66 µM and the IC50 was more than 1.66 µM.

In the case of `Cc1cc(Cl)ccc1NC(=O)CC1SC(N)=NC1=O` (stereo not drawn), the EC50 was more than 832 µM and the concentration for half-maximal inhibition (IC50) is more than 832 µM.

On to `CCOC(=O)C1C[C@@H](O)CN1C(=O)c1ccc2c(c1)OCCO2` (stereo partly drawn), for which the EC50 was more than 200 µM and the 50% inhibitory concentration (IC50) was more than 200 µM.

Take `Cn1cnnc1Sc1c([N+](=O)[O-])ncn1C`: the EC50 is more than 1050 µM and the IC50 was found to be 9.12 µM.

On to `CN1C2c3ccccc3C3C4c5ccccc5C(C31)C(C2[N+](=O)[O-])N4C` (stereo not drawn), for which the EC50 was more than 43.7 µM and the IC50 came to 27.5 µM.

As for `NC(=S)N/N=C(\CCC(=O)Nc1ccccc1[N+](=O)[O-])CC(=O)c1ccco1`, the EC50 is more than 234 µM and the IC50 was more than 234 µM.

Take `O=C1c2ccccc2C(=O)c2nc3c(O)cccc3cc21`: the EC50 is more than 19.1 µM and the half-maximal inhibitory concentration (IC50) was more than 19.1 µM.

In the case of `O=C(NCCCNC(=O)c1ccc2cc(O)ccc2c1)c1ccc2cc(O)ccc2c1`, the outcome was inactive.

With `Cc1cc2n(n1)C(C)(C)C(=O)Nc1ccc(Cl)cc1-2`, the EC50 is more than 49 µM and the half-inhibitory concentration (IC50) was 33.9 µM.

As for `Cc1c(C)n2c(=O)n(-c3ccccc3)c(=O)n2c1=O`, the EC50 was more than 977 µM and the IC50 worked out at 617 µM.
